# Test results from patent US6638957B1, “Use of compounds with a nitrogen-oxygen heterocycle” (Jomaa Pharmaka GmbH, priority 1999, dated 2003).
# Read-outs that look alike come from different tables or passages of the source.
# What was measured:
# Plasmodium falciparum = assay: antimalaria activity on in vitro cultures, [3H]-hypoxanthine incorporation; format: cell-based; conditions: 72 h, inhibition of [3H]-hypoxanthine incorporation, 48 + 24 hours, read-out: IC50(nM) of malaria culture (Plasmodium falciparum)
# Experimental: The antimalaria activity of the compounds listed on page 9 was determined on in vitro cultures of the malaria pathogen Plasmodium falciparum. The depressions of a 96-well microtitre plate were charged with in each case 200 μl of an asynchroneous Plasmodium falciparum culture at a parasitaemia of 0,4% and haematokrit of 2%. A serial dilution series of the compounds in triple steps between concentrations of 100 to 0,14 μmol 1^−1 was then prepared. The plates were incubated at 37° C., 3% CO2 and 5% O2 over a period of 48 hours. 30 μl medium supplemented with 27 μCi ml^−1 [^3H]-hypoxanthine were then added to each well. After incubation for 24 hours the parasites were harvested by filtration on a glass fibre filter and the radioactivity which had been incorporated was measured. The inhibition of the growth of parasites was measured as the percentage inhibition of the incorporation of tritium. Inhibition of the growth of the parasites has been determined as percentage inhibition of incorporation of tritium based on a comparison without the substance. The half-maximum inhibitory concentration (IC50) of the substance was determined by extrapolation of the values.
# Reis = assay: herbicidal activity, Hydro Vorauflauf; format: in vivo; conditions: 4000 Gramm/Hektar
# Experimental: (§1) The determination of herbicidal activity is performed according to standard procedure. Again the compounds listed on page 9 are tested.
# Lepidium = assay: herbicidal activity, Hydro Vorauflauf; format: in vivo; conditions: 4000 Gramm/Hektar
# Experimental: as §1
# Echinochloa = assay: herbicidal activity, Hydro Vorauflauf; format: in vivo; conditions: 4000 Gramm/Hektar
# Experimental: as §1
# Solanum = assay: herbicidal activity, Hydro Vorauflauf; format: in vivo; conditions: 4000 Gramm/Hektar
# Experimental: as §1
# [1] = target: T1, DOXP reductoisomerase of Escherichia coli (UniProt P56139); assay: inhibition of recombinant DOXP reductoisomerase (NADPH oxidation); format: biochemical; conditions: 1 mM DOXP, 0,3 mM NADPH, pH 7,5; read-out: IC50(nM) of DOXP reductoisomerase from Helicobacter pilori
# T1 sequence (P56139 1-368): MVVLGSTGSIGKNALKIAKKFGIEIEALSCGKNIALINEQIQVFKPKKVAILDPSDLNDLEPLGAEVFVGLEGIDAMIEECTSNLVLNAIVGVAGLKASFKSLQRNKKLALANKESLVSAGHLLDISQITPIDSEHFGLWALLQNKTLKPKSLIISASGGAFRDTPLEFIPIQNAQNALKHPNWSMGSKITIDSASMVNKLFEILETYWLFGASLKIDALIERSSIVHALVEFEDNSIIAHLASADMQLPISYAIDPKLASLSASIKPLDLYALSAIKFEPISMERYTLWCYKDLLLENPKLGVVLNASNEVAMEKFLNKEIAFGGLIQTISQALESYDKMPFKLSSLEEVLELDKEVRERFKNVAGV
# Cyperus esculentus [2] = assay: herbicidal activity, Erde Nachauflauf; format: in vivo; conditions: 2000 Gramm/Hektar
# Experimental: as §1
# Sinapis arvensis [3] = assay: herbicidal activity, Erde Nachauflauf; format: in vivo; conditions: Mutarda arvensis; 2000 Gramm/Hektar
# Experimental: as §1
# Zea mays [4] = assay: herbicidal activity, Erde Nachauflauf; format: in vivo; conditions: 2000 Gramm/Hektar
# Experimental: as §1
# Alopecurus myosuroides [5] = assay: herbicidal activity, Erde Nachauflauf; format: in vivo; conditions: 2000 Gramm/Hektar
# Experimental: as §1
# Xanthium strumarium [6] = assay: herbicidal activity, Erde Nachauflauf; format: in vivo; conditions: 2000 Gramm/Hektar
# Experimental: as §1
# Amaranthus retroflexus [7] = assay: herbicidal activity, Erde Nachauflauf; format: in vivo; conditions: 2000 Gramm/Hektar
# Experimental: as §1
# Galium aperine [8] = assay: herbicidal activity, Erde Nachauflauf; format: in vivo; conditions: 2000 Gramm/Hektar
# Experimental: as §1
# Setaria viridis [9] = assay: herbicidal activity, Erde Nachauflauf; format: in vivo; conditions: 2000 Gramm/Hektar
# Experimental: as §1
# Beta vulgaris [10] = assay: herbicidal activity, Erde Nachauflauf; format: in vivo; conditions: 2000 Gramm/Hektar
# Experimental: as §1
# Abutilon theophrasti [11] = assay: herbicidal activity, Erde Nachauflauf; format: in vivo; conditions: 2000 Gramm/Hektar
# Experimental: as §1
# Avena fatua [12] = assay: herbicidal activity, Erde Nachauflauf; format: in vivo; conditions: 2000 Gramm/Hektar
# Experimental: as §1
# Cyperus esculentus [13] = assay: herbicidal activity, Erde Vorauflauf; format: in vivo; conditions: 2000 Gramm/Hektar
# Experimental: as §1
# Sinapis arvensis [14] = assay: herbicidal activity, Erde Vorauflauf; format: in vivo; conditions: Mutarda arvensis; 2000 Gramm/Hektar
# Experimental: as §1
# Zea mays [15] = assay: herbicidal activity, Erde Vorauflauf; format: in vivo; conditions: 2000 Gramm/Hektar
# Experimental: as §1
# Alopecurus myosuroides [16] = assay: herbicidal activity, Erde Vorauflauf; format: in vivo; conditions: 2000 Gramm/Hektar
# Experimental: as §1
# Xanthium strumarium [17] = assay: herbicidal activity, Erde Vorauflauf; format: in vivo; conditions: 2000 Gramm/Hektar
# Experimental: as §1
# Amaranthus retroflexus [18] = assay: herbicidal activity, Erde Vorauflauf; format: in vivo; conditions: 2000 Gramm/Hektar
# Experimental: as §1
# Galium aperine [19] = assay: herbicidal activity, Erde Vorauflauf; format: in vivo; conditions: 2000 Gramm/Hektar
# Experimental: as §1
# Setaria viridis [20] = assay: herbicidal activity, Erde Vorauflauf; format: in vivo; conditions: 2000 Gramm/Hektar
# Experimental: as §1
# Beta vulgaris [21] = assay: herbicidal activity, Erde Vorauflauf; format: in vivo; conditions: 2000 Gramm/Hektar
# Experimental: as §1
# Abutilon theophrasti [22] = assay: herbicidal activity, Erde Vorauflauf; format: in vivo; conditions: 2000 Gramm/Hektar
# Experimental: as §1
# Avena fatua [23] = assay: herbicidal activity, Erde Vorauflauf; format: in vivo; conditions: 2000 Gramm/Hektar
# Experimental: as §1
# Pseudomonas aeruginosa = assay: antibacterial activity, minimum inhibition concentration in liquid culture; format: cell-based; conditions: read-out: MIC(nM) of bacteria culture (Pseudomonas aeruginosa)
# Experimental: A dilution series comprising the concentrations 500, 100, 50, 10 and 0 μmol 1^−1 of the individual compounds in LB medium is introduced into 5 culture microtubes in a volume of 0,5 ml. The tubes were inoculated with 10 μl of an overnight culture of E. coli K12 and shaken overnight at 37° C. The growth of the bacteria was assessed on the basis of the turbidity of the medium. The minimum concentration causing inhibition of bacterial growth was determined (minimum inhibition concentration MIC)
# The antibacterial activity of P. aeruginosa was determined in the same manner.
Structure (SMILES),IC50 (Plasmodium falciparum) [nM],pest or weed control at 4000 g/ha (Reis) [%],pest or weed control at 4000 g/ha (Lepidium) [%],pest or weed control at 4000 g/ha (Echinochloa) [%],pest or weed control at 4000 g/ha (Solanum) [%],IC50 [1] [nM],pest or weed control at 2000 g/ha (Cyperus esculentus [2]) [%],pest or weed control at 2000 g/ha (Sinapis arvensis [3]) [%],plant injury at 2000 g/ha (Zea mays [4]) [%],pest or weed control at 2000 g/ha (Alopecurus myosuroides [5]) [%],pest or weed control at 2000 g/ha (Xanthium strumarium [6]) [%],pest or weed control at 2000 g/ha (Amaranthus retroflexus [7]) [%],pest or weed control at 2000 g/ha (Galium aperine [8]) [%],pest or weed control at 2000 g/ha (Setaria viridis [9]) [%],plant injury at 2000 g/ha (Beta vulgaris [10]) [%],pest or weed control at 2000 g/ha (Abutilon theophrasti [11]) [%],pest or weed control at 2000 g/ha (Avena fatua [12]) [%],pest or weed control at 2000 g/ha (Cyperus esculentus [13]) [%],pest or weed control at 2000 g/ha (Sinapis arvensis [14]) [%],plant injury at 2000 g/ha (Zea mays [15]) [%],further results
CN(C)CCCN1OCCCC1=O [Compound 6],1600,40,30,50,0,130,0,60,70,40,60,70,80,70,40,60,60,0,30,0,"pest or weed control at 2000 g/ha (Alopecurus myosuroides [16]): 70%; pest or weed control at 2000 g/ha (Xanthium strumarium [17]): 0%; pest or weed control at 2000 g/ha (Amaranthus retroflexus [18]): 0%; pest or weed control at 2000 g/ha (Galium aperine [19]): 0%; pest or weed control at 2000 g/ha (Setaria viridis [20]): 0%; plant injury at 2000 g/ha (Beta vulgaris [21]): 60%; pest or weed control at 2000 g/ha (Abutilon theophrasti [22]): 0%; pest or weed control at 2000 g/ha (Avena fatua [23]): 0%; MIC (Pseudomonas aeruginosa; LB medium, overnight at 37° C., turbidity): 2500 nM"
CC1CON(COCP(C)(=O)O)C1=O (stereo not shown) [Compound 3],1700,40,30,40,0,125,0,70,70,60,60,60,40,70,90,60,50,0,30,0,pest or weed control at 2000 g/ha (Alopecurus myosuroides [16]): 60%; pest or weed control at 2000 g/ha (Xanthium strumarium [17]): 0%; pest or weed control at 2000 g/ha (Amaranthus retroflexus [18]): 0%; pest or weed control at 2000 g/ha (Galium aperine [19]): 0%; pest or weed control at 2000 g/ha (Setaria viridis [20]): 0%; plant injury at 2000 g/ha (Beta vulgaris [21]): 30%; pest or weed control at 2000 g/ha (Abutilon theophrasti [22]): 0%; pest or weed control at 2000 g/ha (Avena fatua [23]): 0%; MIC (Pseudomonas aeruginosa): 2200 nM
